Test results taken from ChEMBL document CHEMBL3797106, “Potent and Selective Agonists of Sphingosine 1-Phosphate 1 (S1P1): Discovery and SAR of a Novel Isoxazole Based Series” (J Med Chem, 2016).
Active and inactive are the calls of the source. The rule behind the calls is not given here.

Tests used:
[1] = Plasma concentration in Lewis rat at 1 mg/kg, po measured at 24 hrs; assay type: ADME, organism-based
Homo sapiens = species on record: Homo sapiens; experiment: Selectivity ratio of EC50 for human S1P3 receptor to EC50 for human S1P1 receptor
Plasma = experiment: Ratio drug level in Lewis rat plasma at 1 mg/kg, po at 4 hrs to drug level in Lewis rat plasma at 1 mg/kg, po at 24 hrs; assay type: ADME, organism-based; settings: in vivo
Rattus norvegicus [2] = experiment: Reduction of blood lymphocyte level in Lewis rat at 1 mg/kg, po measured at 4 hrs by hematology analyzer relative to vehicle-treated control; assay type: functional; parameters: scale not given: the % may be the effect or the level left
Rattus norvegicus [3] = experiment: Reduction of blood lymphocyte level in Lewis rat at 1 mg/kg, po measured at 24 hrs by hematology analyzer relative to vehicle-treated control; assay type: functional; parameters: scale not given: the % may be the effect or the level left
[4] = target: Sphingosine 1-phosphate receptor 3 (Homo sapiens, UniProt Q99500); experiment: Agonist activity at human S1P3 receptor expressed in EDG3-Ga15-bla HEK293T cell membranes after 45 mins by [35S]-GTPgammaS binding assay; assay type: functional, HEK-293T
[5] = Plasma concentration in Lewis rat at 1 mg/kg, po measured at 4 hrs; assay type: ADME, organism-based
[6] = target: Sphingosine 1-phosphate receptor 1 (Homo sapiens, UniProt P21453); experiment: Agonist activity at human S1P1 receptor expressed in CHO cell membranes after 45 mins by [35S]-GTPgammaS binding assay; assay type: functional
Mus musculus = experiment: Reduction in clinical score in C57BL/6 mouse experimental autoimmune encephalomyelitis model of multiple sclerosis at 1 mg/kg, po qd for 24 days started from day of immunization measured 3 times per week of compound dosing; assay type: functional, organism-based

Chain of Sphingosine 1-phosphate receptor 1 (P21453 whole entry): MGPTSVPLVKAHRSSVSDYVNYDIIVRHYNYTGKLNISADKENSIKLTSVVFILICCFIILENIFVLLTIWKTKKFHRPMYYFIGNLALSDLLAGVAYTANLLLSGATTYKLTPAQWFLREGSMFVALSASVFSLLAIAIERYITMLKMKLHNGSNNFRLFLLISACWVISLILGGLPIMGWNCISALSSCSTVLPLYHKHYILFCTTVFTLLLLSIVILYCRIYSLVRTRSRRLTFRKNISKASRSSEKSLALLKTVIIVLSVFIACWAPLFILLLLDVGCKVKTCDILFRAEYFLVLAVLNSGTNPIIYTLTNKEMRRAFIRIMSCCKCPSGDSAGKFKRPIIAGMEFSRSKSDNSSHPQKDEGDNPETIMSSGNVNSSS
Chain of Sphingosine 1-phosphate receptor 3 (Q99500 whole entry): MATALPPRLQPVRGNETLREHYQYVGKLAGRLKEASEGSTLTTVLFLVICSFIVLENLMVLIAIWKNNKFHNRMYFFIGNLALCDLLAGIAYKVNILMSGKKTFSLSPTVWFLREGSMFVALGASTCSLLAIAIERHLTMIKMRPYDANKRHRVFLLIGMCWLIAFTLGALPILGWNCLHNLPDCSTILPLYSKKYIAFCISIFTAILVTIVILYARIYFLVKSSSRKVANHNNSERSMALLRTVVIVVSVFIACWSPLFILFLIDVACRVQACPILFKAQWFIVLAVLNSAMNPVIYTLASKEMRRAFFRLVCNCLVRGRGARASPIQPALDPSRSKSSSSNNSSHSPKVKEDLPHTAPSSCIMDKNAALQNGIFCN

Compound | concentration at 24 h [1] [nM] | Ratio EC50 (Homo sapiens) | Ratio (Plasma) | EC50 [4] [nM] | concentration at 4 h [5] [nM] | EC50 [6] [nM] | Activity (Rattus norvegicus [2]) [%] | Activity (Rattus norvegicus [3]) [%] | Activity (Mus musculus)
CC(F)(F)c1c(-c2nc(-c3ccc(CN4CC(C(=O)O)C4)cc3)no2)noc1-c1ccccc1 | 100 | 3500 | 14 | 1900 | 1400 | 0.54 | 81 | 82 | –
CC(C)Cc1onc(-c2nc(-c3ccc(CN4CC(C(=O)O)C4)cc3)no2)c1C(F)(F)F | 280 | 16000 | 6 | 6200 | 1600 | 0.39 | 88 | 83 | –
CCCc1c(-c2nc(-c3ccc(CN4CC(C(=O)O)C4)cc3)no2)noc1CC(C)C | 41 | 2900 | 33 | 850 | 1300 | 0.3 | 86 | 78 | –
CCCCCCCCc1ccc(CCC(N)(CO)CO)cc1 | – | – | – | – | – | – | – | – | Active
O=C(O)C1CN(Cc2ccc(-c3noc(-c4cc(-c5ccccc5)no4)n3)cc2)C1 | – | – | – | – | – | 25 | – | – | –
Cc1c(-c2nc(-c3ccc(CN4CC(C(=O)O)C4)cc3)no2)noc1-c1ccccc1 | 6.4 | > 6300 | 41 | > 31 | 260 | 5 | 68 | 0 | –
CC(C)c1c(-c2nc(-c3ccc(CN4CC(C(=O)O)C4)cc3)no2)noc1-c1ccccc1 | – | 4000 | – | 5100 | – | 1.3 | – | – | –
CC(C)(C)c1c(-c2nc(-c3ccc(CN4CC(C(=O)O)C4)cc3)no2)noc1-c1ccccc1 | 55 | 500 | 9 | 2600 | 520 | 5.3 | 73 | 52 | –
CCc1c(-c2nc(-c3ccc(CN4CC(C(=O)O)C4)cc3)no2)noc1-c1ccccc1 | 29 | 7500 | 11 | 12000 | 320 | 1.6 | 76 | 52 | –
CCCCc1c(-c2nc(-c3ccc(CN4CC(C(=O)O)C4)cc3)no2)noc1-c1ccccc1 | 5 | – | 16 | – | 81 | – | 82 | 60 | –

Continued by falling EC50 [6], values first:

concentration at 24 h [1] [nM] | Ratio EC50 (Homo sapiens) | Ratio (Plasma) | EC50 [4] [nM] | concentration at 4 h [5] [nM] | EC50 [6] [nM] | Compound | Activity (Rattus norvegicus [2]) [%] | Activity (Rattus norvegicus [3]) [%] | Activity (Mus musculus)
– | 150 | – | 6300 | 140 | 44 | O=C(O)C1CN(Cc2ccc(-c3noc(-c4cc(-c5ccccc5)on4)n3)cc2)C1 | 22 | 0 | –
– | 540 | – | 1800 | – | 3.2 | O=C(O)C1CN(Cc2ccc(-c3noc(-c4noc(-c5ccccc5)c4C4CC4)n3)cc2)C1 | – | – | –
– | 5500 | – | 9200 | – | 1.7 | Cc1c(-c2ccccc2)noc1-c1nc(-c2ccc(CN3CC(C(=O)O)C3)cc2)no1 | – | – | –
– | 130 | – | 130 | – | 0.99 | O=C(O)C1CN(Cc2ccc(-c3noc(-c4noc(-c5ccccc5)c4-c4ccccc4)n3)cc2)C1 | – | – | –
180 | 4100 | 6 | 4100 | 1100 | 0.98 | O=C(O)C1CN(Cc2ccc(-c3noc(-c4noc(-c5ccccc5)c4C(F)(F)F)n3)cc2)C1 | 84 | 85 | –
30 | 1300 | 6 | 730 | 190 | 0.56 | CC(C)Cc1c(-c2nc(-c3ccc(CN4CC(C(=O)O)C4)cc3)no2)noc1-c1ccccc1 | 80 | 82 | –
11 | 2300 | 15 | 1000 | 170 | 0.44 | CCCc1c(-c2ccccc2)noc1-c1nc(-c2ccc(CN3CC(C(=O)O)C3)cc2)no1 | 85 | 82 | –
7.9 | 2900 | 31 | 1300 | 250 | 0.44 | CCCc1c(-c2nc(-c3ccc(CN4CC(C(=O)O)C4)cc3)no2)noc1-c1ccccc1 | 85 | 60 | –
